Source: patent US8623832B2, “Peptide compositions that bind TLR-4” (The Board of Regents of the University of Oklahoma, priority 2011, dated 2014)
Entries after “also recorded” stand apart in the source; their conditions may differ. Where no end group is shown, it is not given here.

Columns and labels:
TLR4 = TLR4 expression in JAWS II dendritic cells by immunocytochemistry / confocal microscopy; format: cell-based, mouse
Procedure: TLR4 expression by immunocytochemistry: The JAWS II-DCs were seeded at a density of 25,000 cells per well of an 8-well chamber slide (Nalge Nunc international, New York, USA). Post-LPS (100 ng/ml) treatment with SPA4 peptide (1 and 10 μM; SEQ ID NO:3) followed, and the cells were fixed for 20 minutes with 3.5% paraformaldehyde prepared in PBS on ice. Permeablization was carried out for 20 minutes on ice with Alpha-MEM medium containing 10% FBS and 0.05% saponin and 10 mM HEPES (Inaba et al., 1998). The cells were washed with PBS supplemented with 1% FBS and 0.05% saponin (wash buffer). Non-specific binding sites were blocked using PBS containing 10% normal mouse serum (Sigma, St Louis, Mo.) for 1 hour at room temperature in a humidified chamber. A rabbit polyclonal antibody to mouse TLR4 (Abcam, Cambridge, Mass.) was added to the cells at a dilution of 1:50 and incubated overnight at 4° C. in a humidified chamber. […]
SPA4 peptide (SEQ ID NO:3) inhibits the LPS-induced TLR4 expression in dendritic cells and SW480 intestinal (colonic) epithelial cells. […] First, it was determined if the SPA4 peptide inhibits LPS-induced expression of TLR4 in these cells. […]

DSS-colitis = experiment: Dextran sodium sulfate (DSS)-colitis model in mice; format: in vivo; conditions: 3% DSS 7 days, SPA4 100 μg daily intraperitoneal
Procedure: SPA4 peptide reduced serum TNF-α and inflammation in Dextran sodium sulfate (DSS)-colitis model in mice (FIG. 18). SPA4 peptide was also evaluated in the mouse model of DSS-colitis. DSS (3% in drinking water) was given to the mice for a period of 7 days. In the treatment group, mice were simultaneously injected with SPA4 peptide (100 μg daily via intraperitoneal route). After 2 days of recovery period, the mice were weighed, colons were macroscopically examined, and blood samples were harvested. The TNF-α levels were measured by ELISA.

[1] = Binding to LPS by Limulus Amoebocyte Lysate (LAL) assay; parameters: species or system Escherichia coli; conditions: 0-20 μM peptide; 0.01 ng/ml LPS; read at 6 and 12 minutes
Procedure: Binding of SPA4 peptide to LPS: The binding of SPA4 peptide to LPS was studied by LAL assay as per the method described by Giacometti et al. (2004). Briefly, 0-20 μM SPA4 peptide or polymyxin B (positive control) solutions were added to 0.01 ng/ml Escherichia coli O111:B4 LPS (supplied with the kit, Charles River Laboratories International, Inc., Wilmington, Mass.) in the wells of a 96 well plate and incubated at 37° C. for 40 minutes. Fifty μl of LAL substrate solution was then added to each well, and the plate was incubated for another 10 minutes. Finally, substrate-buffer solution was added, and optical density readings (OD) were obtained at 405 nm after 0, 6 and 12 minutes of addition of substrate. AOD values for SPA4 peptide or polymyxin B incubated with LPS (ΔODtreatment), LPS alone (ΔODLPS) and blank (ΔODBlank) were calculated by subtracting the OD values obtained at 6 or 12 minutes from those obtained at 0 minutes. Percent binding of SPA4 peptide and polymyxin B was calculated at 6 and 12 minutes of reaction using following formula: […]

IL-1β and IL-6 = experiment: Expression of IL-1β and IL-6 in SW480 cell lysates by immunoblotting; format: cell-based, human
Procedure: Expression of IL-1β and IL-6: Two treatment models (post- and pre-LPS treatment) were utilized for assessing the effects of SPA4 peptide on LPS-induced cytokines: IL-1β and IL-6. Post-LPS treatment models (short-term and long-term) are described above. In pre-LPS treatment model, the SW480 cells were pretreated with SPA4 peptide (10 μM) for 2 hours, followed by LPS-challenge (1.0 μg/ml) for another 4 hours. The cell-lysates were prepared either in commercially available cell-culture lysis reagent (Promega, WI) or directly into SDS-PAGE sample buffer containing 50 mM dithiothreitol (Cell Signalling Technology, MA). Ten μg of cell-lysate proteins were separated on 4-20% Novex Tris-glycine gradient SDS-PAGE gel (Invitrogen, CA) or 10% separating-5% stacking acrylamide gel. The expression levels of cytokines were measured by immunoblotting as described above using 1:1000 diluted antibodies against IL-1β and IL-6. Both antibodies were purchased from Santacruz Biotech, CA.

SW480 cells = experiment: LPS-stimulated migration of SW480 cells; format: cell-based, human; conditions: LPS 1.0 μg/ml; SPA4 1, 10 and 50 μM; from 24 hours till 72 hours
Procedure: Cell migration: SW480 cells were plated in 30 mm tissue-culture-treated dishes at a density of 1.0×10^6 cells per plate. At 80-90% confluence, a “reference line” was drawn at the bottom of the plate. The cells were scratched off from one side of the reference line using a rubber policeman. A picture was taken at 0 t that helped in marking the “start line”. Cells were then washed with complete medium and incubated with LPS (1.0 μg/ml) and/or SPA4 peptide (1, 10 and 50 μM). Photomicrographs of cells migrated across the “start line” were taken in different fields after each treatment at 24, 48, and 72 hours (±2 hours) following traceable inscriptions made under the plate at three different points, with a Canon digital camera. On 24, 48 and 72 hour images, a second line was drawn along the edge of cells to represent the migration of cells. Cell migration was calculated by measuring the distance cells migrated from the “start line”. Only the continuous migration of cells was considered for measurement. The islets of cells were disregarded. The cell migration was calculated using the following formula: (distance between “start line” at 0 h—“reference line”)-(distance between “72 hours line”—“reference line”).

[2] = system: dendritic (JAWS II) and intestinal epithelial cells (SW480); experiment: Cell viability during the 5 hour TLR4 expression experiment; format: cell-based; conditions: within the 5 hours of the experiment
Procedure: SPA4 peptide (SEQ ID NO:3) inhibits the LPS-induced TLR4 expression in dendritic cells and SW480 intestinal (colonic) epithelial cells. […] Both of these cells constitutively express the TLR4 gene; the protein expression is low in dendritic cells under basal conditions. […] First, it was determined if the SPA4 peptide inhibits LPS-induced expression of TLR4 in these cells. […] After a total of 5 hours, TLR4 expression was studied by confocal microscopy.

GDFRYSDGTPVNYTNWYRGE [SPA4, GDFRYSDGT PVNYTNWYRGE]
basal TLR4 expression (TLR4): reduced the basal TLR4 expression | LPS-induced TLR4 expression (TLR4; post-LPS treatment, p<0.05): suppressed significantly; also recorded: reduced LPS-induced TLR4 expression to a basal level | colitis symptoms (distension and shortening of the colon) (DSS-colitis): reduced the colitis symptoms | DSS-induced serum levels of circulating TNF-α (DSS-colitis; ELISA): completely inhibited | body weight (DSS-colitis; compared to DSS-colitis mice): recovered | colon length (DSS-colitis; compared to DSS-colitis mice): recovered | binding to LPS [1]: does not bind to LPS | expression of IL-6 precursors or active form, short-term treatment model (IL-1β and IL-6): not significantly affected | expression of low molecular weight precursors and active IL-1β, post-LPS treatment models (IL-1β and IL-6; 5 hours and 9 hours, dose-dependent): significantly decreased | IL-6 expression, prolonged treatment (IL-1β and IL-6; 6 hours or 9 hours in pre- and post-LPS-treatment models): significantly inhibited | expression of IL-1β precursor and active forms, pre-LPS treatment model (IL-1β and IL-6; SPA4 10 μM 2 hours then LPS 1.0 μg/ml 4 hours): significant decrease | expression of IL-1β precursor form 1 (IL-1β and IL-6; compared with LPS-treated cells): increased or unchanged | LPS-induced migration of SW480 cells (SW480 cells): inhibited | viability of cells [2]: does not affect the viability of cells
